Values after ≈ are worked out from the molar mass of the structure shown.
Key:
[1] = test system: Mycobacterium tuberculosis; test: Antitubercular activity against Mycobacterium tuberculosis H37Rv ATCC 27294 after 5 days by resazurin microtitre assay; format: functional; conditions: H37Rv ATCC 27294, 120 h
[2] = Inhibition of Mycobacterium tuberculosis H37Rv glutamine synthetase expressed in Escherichia coli GJ4745 after 1 hr
[3] = test system: A549; test: Cytotoxicity against human A549 cells after 72 hrs by resazurin reduction assay; format: cell-based; conditions: A549, 72 h
[4] = Selectivity ratio of IC50 for human A549 cells to MIC for Mycobacterium tuberculosis H37Rv ATCC 27294; format: functional

SMILES	MIC [1] [µg/mL]	IC50 [2] [µM]	also measured
CC(C)(C)c1nc(-c2cnc3ccccc3c2)c(-c2ccncc2)[nH]1	> 32	–	–
COc1ccc2cc(-c3nc(C)[nH]c3-c3ccncc3)ccc2c1	–	> 25	–
COc1ccc2cc(-c3nc(COCc4ccccc4)[nH]c3-c3ccncc3)ccc2c1	–	> 25	–
COc1ccc2cc(-c3nc(C(C)(C)c4ccccc4)[nH]c3-c3ccncc3)ccc2c1	–	> 25	–
COc1ccc2cc(-c3nc(-c4ccccc4)[nH]c3-c3ccncc3)ccc2c1	–	> 25	–
COc1ccc2cc(-c3nc(-c4cccc(O)c4)[nH]c3-c3ccncc3)ccc2c1	–	> 25	–
COc1ccc2cc(-c3nc(C(C)(C)C)[nH]c3-c3ccnc(N)c3)ccc2c1	2 (≈ 5.37 µM)	–	IC50 [3]: 24.7 µM; Ratio IC50 [4]: 5
COc1ccc2cc(-c3nc(C(C)(C)C)[nH]c3-c3cncnc3)ccc2c1	–	> 25	–
COc1ccc2cc(-c3nc(C(C)(C)C)[nH]c3-c3ccnc(F)c3)ccc2c1	64 (≈ 170 µM)	1.2	–
CCc1nc(-c2ccc3cc(OC)ccc3c2)c(-c2ccncc2)[nH]1	> 32	2.2	–
COc1ccc2cc(-c3nc(C(C)(C)C)[nH]c3-c3ncccn3)ccc2c1	–	> 25	–
COc1ccc2cc(-c3nc(C(C)(C)C)[nH]c3-c3ccncc3)ccc2c1	> 32	3.1	–
COc1ccc2cc(-c3nc[nH]c3-c3ccncc3)ccc2c1	–	> 25	–
COc1ccc2cc(-c3nc(C(C)(C)C)[nH]c3-c3ccnc(N(C)C)c3)ccc2c1	–	> 25	–
COc1ccc2cc(-c3nc(-c4ccc[nH]4)[nH]c3-c3ccncc3)ccc2c1	–	> 25	–
CNc1cc(-c2[nH]c(C(C)(C)C)nc2-c2ccc3cc(OC)ccc3c2)ccn1	8 (≈ 20.7 µM)	5.2	–
COc1ccc2cc(-c3nc(CO)[nH]c3-c3ccncc3)ccc2c1	–	> 25	–
COc1ccc2cc(-c3nc(C(C)(C)C)[nH]c3-c3ccccc3)ccc2c1	–	> 25	–
